In patent US9486507B2, “Pro-coagulant compounds and methods of use thereof” (priority 2011, dated 2016):
Values joined by “and” are separate entries in the source; they are usually repeats but may differ in a detail not shown here. Identical values can stand only once.

Tests used:
Assay type in all cases: biochemical
FIXa = FIXa (Homo sapiens, UniProt P00740); experiment: Km/Kcat of FIXa for the substrate FX (FXa generation assay); design: purchased Haematologic Technologies
Description: To determine the Km and Kcat of FIXa or FVIIa for the substrate FX, the FXa generation assay described above was used with the following modifications. […] Reactions were set up with varying concentrations of FX ranging between 400 and 0.8 nM and the rates of FXa generation were determined for each peptide at the different FX concentrations tested as described above. […] The catalytic constant (Kcat) was calculated by normalizing the Vmax to the enzyme concentration.
FIXa was used at 10 nM, and FX was used at 10-1000 nM. The assay was performed in the presence of phospholipids (PL) and calcium chloride.

FVIIa = target: T1, FVIIa (Homo sapiens, UniProt P08709); experiment: Km/Kcat of FVIIa for the substrate FX (FXa generation assay); details: presence vs absence of compound 5
T1 construct: The two-chain Factor VIIa is a polypeptide produced from FVII by hydrolysis of the Arg152-Ile153 peptide bond of FVII; purchased Haematologic Technologies
T1 sequence (P08709 61-212 limits assumed): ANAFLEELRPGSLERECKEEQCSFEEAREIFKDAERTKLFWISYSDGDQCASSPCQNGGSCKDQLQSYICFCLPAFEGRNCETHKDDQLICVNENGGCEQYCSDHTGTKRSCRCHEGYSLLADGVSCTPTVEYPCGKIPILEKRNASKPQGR
T1 sequence (P08709 213-466 limits assumed): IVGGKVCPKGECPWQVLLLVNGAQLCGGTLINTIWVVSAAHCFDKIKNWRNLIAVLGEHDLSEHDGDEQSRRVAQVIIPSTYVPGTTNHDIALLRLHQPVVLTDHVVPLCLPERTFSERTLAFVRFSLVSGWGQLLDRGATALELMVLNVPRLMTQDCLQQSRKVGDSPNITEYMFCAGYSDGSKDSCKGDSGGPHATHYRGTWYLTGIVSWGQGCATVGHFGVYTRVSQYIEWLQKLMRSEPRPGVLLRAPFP
Description: Similarly, in order to measure the catalytic activity of FVIIa, a FXa generation assay measuring the ability of the compounds of the present disclosure to enhance the catalytic activity of FVIIa was established. The difference between the two assays was that the final concentration of 10 nM hFIXa was replaced with 10 nM hFVIIa. The remaining reagents and assay procedures described above were unchanged.
To determine the Km and Kcat of FIXa or FVIIa for the substrate FX, the FXa generation assay described above was used with the following modifications. A single peptide concentration was tested (typically one that gave the maximal rate of FXa generation) and the concentration of all assay components was similar to that described above with the exception of FX. Reactions were set up with varying concentrations of FX ranging between 400 and 0.8 nM and the rates of FXa generation were determined for each peptide at the different FX concentrations tested as described above. For each peptide assayed, the data were fitted to the following equation that gives the Michaelis-Menten constant (Km) and the Vmax for FIXa or FVIIa: v=Vmax [FX]/Km+[FX], wherein v is the rate of FXa generation determined as described above. The catalytic constant (Kcat) was calculated by normalizing the Vmax to the enzyme concentration.

[1] = tested on: FVIII deficient human plasma; experiment: Rotational thromboelastometry (ROTEM) in FVIII-deficient human plasma
Description: Compounds of the present disclosure were tested by rotational thromboelastometry to evaluate coagulation parameters such as clotting time (CT), α-angle, clot formation time (CFT), maximum clot firmness (MCF). Briefly, lyophilized and citrated FVIII deficient human plasma (Siemens) was reconstituted with 1 mL of distilled water, allowed to stand for 20 min at RT and mixed well before use. Alternatively, an aliquot of citrated (non-lyophilized) FVIII deficient human plasma (HRF, George King, Precision Biologics, or real-time donors) was thawed for 10 min in a 37° C. water bath and when needed centrifuged at 2800 g for 5 min at 25° C. FVIII deficient plasma was spiked with lyophilized platelets (Helena Laboratories, final concentration 0.5×10^8 cells/ml) and compounds, FVIII, or both compound and FVIII. Dilutions of compounds of the present disclosure and controls, such as FVIII, were prepared in PBS (—Ca, —Mg). Next, 300 μl of the spiked plasma was transferred to a ROTEM cup already containing 20 μl of StarTEM (concentrated calcium chloride solution) and 20 μl of lipidated TF (American Diagnostica, final concentration 10 fM) or Kaolin (Sigma-Aldrich, final concentration 0.4 μg/ml) and recording was initiated. The cups were maintained at 37° C. during the testing.

[2] = target: T2, FXa or the prothrombinase complex (Homo sapiens, UniProt P00742); experiment: FXa / prothrombinase activity in purified thrombin generation assay; details: 1 μM; FXa 0.05 ug/mL, with or without FV
T2 construct: Under these conditions FIXa cleaves the zymogen FX into the active form FXa
Description: In another experiment it was determined whether or not the compounds of the present disclosure directly enhance the activity of FXa or the prothrombinase complex.

[3] = hFIXa 10 nM, FX 10-1000 nM, PL, CaCl2, compound 1 3 μM, compounds 3, 4, 5 1 μM, compound C 10 μM
[4] = FVIII-deficient plasma (containing platelets), 10 μM
[5] = FVIII-deficient plasma, compound 5 2.5 μM + FVIIa-Fc 10 IU/mL
[6] = FVIII-deficient plasma, compound 5 2.5 μM + FVIIa-Fc 20 IU/mL
[7] = human HemA plasma, 5 μM, anti-FVIII pab +
[8] = human HemA plasma, 5 μM, anti-FVIII pab −
[9] = human HemA plasma, 10 μM, anti-FVIII pab +
[10] = human HemA plasma, 10 μM, anti-FVIII pab −

FIXa, sequence (P00740 47-191 limits assumed): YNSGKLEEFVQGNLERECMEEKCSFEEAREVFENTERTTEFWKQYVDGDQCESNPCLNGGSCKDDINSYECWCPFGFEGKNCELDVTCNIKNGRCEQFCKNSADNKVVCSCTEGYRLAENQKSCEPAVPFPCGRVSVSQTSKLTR
FIXa, sequence (P00740 227-461 limits assumed): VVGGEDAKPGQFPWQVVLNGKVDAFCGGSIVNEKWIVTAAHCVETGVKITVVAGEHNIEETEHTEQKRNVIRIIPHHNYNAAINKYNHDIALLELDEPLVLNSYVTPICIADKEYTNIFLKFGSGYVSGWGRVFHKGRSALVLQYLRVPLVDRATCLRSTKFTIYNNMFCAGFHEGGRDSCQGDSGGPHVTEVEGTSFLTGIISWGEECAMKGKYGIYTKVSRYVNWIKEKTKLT
T2 sequence (P00742 41-179 limits assumed): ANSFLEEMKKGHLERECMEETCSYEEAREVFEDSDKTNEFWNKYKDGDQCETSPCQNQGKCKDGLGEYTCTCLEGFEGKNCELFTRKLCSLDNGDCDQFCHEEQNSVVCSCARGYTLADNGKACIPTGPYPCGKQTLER
T2 sequence (P00742 235-488 limits assumed): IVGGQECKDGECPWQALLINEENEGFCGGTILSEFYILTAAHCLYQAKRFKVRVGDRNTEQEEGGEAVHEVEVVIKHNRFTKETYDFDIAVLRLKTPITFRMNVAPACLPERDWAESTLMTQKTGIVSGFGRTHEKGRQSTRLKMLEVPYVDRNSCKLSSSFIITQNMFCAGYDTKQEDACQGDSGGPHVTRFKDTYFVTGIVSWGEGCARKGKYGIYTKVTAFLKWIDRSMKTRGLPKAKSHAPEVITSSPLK

Q: rRAPGKLTCLASYCWLFWTGIA [Compound 5] was tested. Which Km (FIXa; [3]) did it give?
A: 0.011 ± 0.0023 µM

Q: And the kcat (FIXa; [3])?
A: 0.000298 s⁻¹

Q: And the “Δ kcat FIXa” value (FIXa; presence vs absence of compound 5)?
A: 199

Q: And the Δ kcat (FIXa; relative to buffer (1.0), compound 1 3 μM, compounds 3, 4, 5 1 μM, compound C 10 μM)?
A: 199

Q: What about the “Δ kcat FVIIa” value (FVIIa) of the same substance?
A: 2419

Q: And the “Clotting time” value [1, 4]?
A: 277 s and 298 s

Q: What about the “α-angle, degrees” value [1, 4] of the same substance?
A: 34 degrees and 27 degrees

Q: And the Clotting time [1, 5]?
A: 303.5 s

Q: And the α-angle [1, 5]?
A: 38.5 degrees

Q: What about the Clotting time [1, 6] of the same substance?
A: 115 s

Q: And the α-angle [1, 6]?
A: 63 degrees

Q: What about the “calcium dependence of procoagulant effect (clotting time)” value ([1]; compound 5 2.5 and 5 μM, 0 to about 16 mM calcium) of the same substance?
A: sensitive to the calcium concentration

Q: And the “Clotting time” value [1, 7]?
A: 197 s and 194 s

Q: What about the “α-angle, degrees” value [1, 7] of the same substance?
A: 48 degrees and 53 degrees

Q: And the “Clotting time” value [1, 8]?
A: 154 s and 164 s

Q: What about the “α-angle, degrees” value [1, 8] of the same substance?
A: 51 degrees and 58 degrees

Q: And the “Clotting time” value [1, 9]?
A: 108 s and 110 s

Q: And the “α-angle, degrees” value [1, 9]?
A: 67 degrees and 69 degrees

Q: What about the “Clotting time” value [1, 10] of the same substance?
A: 101 s and 105 s

Q: What about the “α-angle, degrees” value [1, 10] of the same substance?
A: 70 degrees and 68 degrees

Q: And the “catalytic activity of FXa or the prothrombinase complex” value [2]?
A: did not substantially increase the catalytic activity of FXa or the prothrombinase complex
